Measured values published in paper PMC6630832, “3-Vinylazetidin-2-Ones: Synthesis, Antiproliferative and Tubulin Destabilizing Activity in MCF-7 and MDA-MB-231 Breast Cancer Cells” (Pharmaceuticals, 2019).
Read-outs that look alike come from different tables or passages of the source.

Assays:
[1] = Cytotoxicity assay in primary murine mammary epithelial cells (alamar blue); assay type: cell-based, mouse; details: female, CD-1, mouse, primary mammary epithelial cells, 72 h; for viability at 72 h, 10 μM: murine epithelial cells, read-out: % Viable cells; for viability at 72 h: at the compound's IC50 in MCF-7 cells, read-out: % Viable cells at IC50
Description: (§1) As previously reported mammary glands from 14–18 day pregnant CD-1 mice were used as source and primary mammary epithelial cell cultures were prepared from these. The isolated mammary epithelial cells were seeded at two concentrations (25,000 cells/mL and 50,000 cells/mL). […] After 24 h, the cells were treated with 2 µL volumes of test compound 7s which had been pre-prepared as stock solutions in ethanol to furnish the concentration range of study, 1 nM–100 µM, and re-incubated for a further 72 h. Control wells contained the equivalent volume of the vehicle ethanol (1% v/v). The cytotoxicity was assessed using alamar blue dye.

[2] = tested on: normal murine mammary epithelial cells; assay: as above; assay type: cell-based, mouse; details: for IC50: Mus musculus, Epithelial cell, alamar blue; for IC50 / % Viable cells at IC50: 72 h; for % Viable cells at IC50: at the compound's IC50 in MCF-7 cells, 25,000 cells/mL
Description: as §1

MCF-7 cells = assay: Annexin V/PI apoptotic assay; details: for apoptotic cells (annexin-V positive): MCF-7, 72 h
Description: Apoptotic cell death was detected by flow cytometry using Annexin V and propidium iodide (PI). […] Cells were then harvested and prepared for flow cytometric analysis. Cells were washed in 1X binding buffer (20X binding buffer: 0.1M HEPES, pH 7.4; 1.4 M NaCl; 25 mM CaCl2 diluted in dH2O) and incubated in the dark for 30 min on ice in Annexin V-containing binding buffer [1:100]. Cells were then washed once in binding buffer and then re-suspended in PI-containing binding buffer [1:1000]. […] Four populations are produced during the assay Annexin V and PI negative (Q4, healthy cells), Annexin V positive and PI negative (Q3, early apoptosis), Annexin V and PI positive (Q2, late apoptosis) and Annexin V negative and PI positive (Q1, necrosis). Paclitaxel was used as a positive control for cell death

HL-60 = assay: Antiproliferative activity in HL-60 leukemia cells; assay type: cell-based; details: Homo sapiens
Description: The human breast carcinoma cell line MCF-7, was purchased from the European Collection of Animal Cell Cultures (ECACC) and was cultured in Eagle’s minimum essential medium with 10% fetal bovine serum, 2 mM L-glutamine and 100 μg/mL penicillin/streptomycin. The medium was supplemented with 1% non-essential amino acids. The human breast carcinoma cell line MDA-MB-231 was purchased from the European Collection of Animal Cell Cultures (ECACC). MDA-MB-231 cells were maintained in Dulbecco’s modified Eagle’s medium (DMEM) supplemeted with 10% (v/v) fetal bovine serum, 2 mM L-glutamine and 100 μg/mL penicillin/streptomycin (complete medium). All media contained 100 U/mL penicillin and 100 μg/mL streptomycin. […]
Cells were seeded at a density of 5 × 10^3 cells/well (MCF-7), in triplicate in 96-well plates. […] Cell viability for MCF-7 and MDA-MB-231 was analysed using the Alamar Blue assay (Invitrogen Corp, Thermo Fisher Scientific, 168 Third Avenue, Waltham, MA, USA) according to the manufacturer’s instructions. […] Fluorescence was read using a 96-well fluorimeter with excitation at 530 nm and emission at 590 nm. Results were expressed as percentage viability relative to vehicle control (100%). […]

K562 = assay: Antiproliferative activity in K562 leukemia cells; assay type: cell-based; details: Homo sapiens
[3] = tested on: human MDA-MB-231 breast cancer cells; assay: Cell viability (Alamar Blue) antiproliferative assay in MDA-MB-231 cells; assay type: cell-based; details: mean ± SEM
Description: The human breast carcinoma cell line MCF-7, was purchased from the European Collection of Animal Cell Cultures (ECACC) and was cultured in Eagle’s minimum essential medium with 10% fetal bovine serum, 2 mM L-glutamine and 100 μg/mL penicillin/streptomycin. The medium was supplemented with 1% non-essential amino acids. The human breast carcinoma cell line MDA-MB-231 was purchased from the European Collection of Animal Cell Cultures (ECACC). MDA-MB-231 cells were maintained in Dulbecco’s modified Eagle’s medium (DMEM) supplemeted with 10% (v/v) fetal bovine serum, 2 mM L-glutamine and 100 μg/mL penicillin/streptomycin (complete medium). All media contained 100 U/mL penicillin and 100 μg/mL streptomycin. Triple negative breast cancer Hs578T cells and its invasive variant Hs578Ts(i)8 were obtained as a kind gift from Dr. Susan McDonnell, School of Chemical and Bioprocess Engineering, University College Dublin and were cultured in Dulbecco’s Modified Eagle’s Media (DMEM) with GlutaMAX^TM-I, with the same supplement as for MDA-MB-231 cells in the absence of non-essential amino acids. HEK-293T normal epithelial embryonic kidney cells were cultured in Dulbecco’s Modified Eagle’s Medium (DMEM) with GlutaMAX^TM-I in the absence of non-essential amino acids. K562 and HL-60 cells were originally obtained from the European Collection of Cell Cultures (Salisbury, UK).The K562 cells were derived from a patient in the blast crisis stage of CML HL-60 cells were derive from a patient with acute myeloid leukaemia. Cells were cultured in RPMI-1640 Glutamax medium supplemented with 10% FCS media, and 100 μg/mL penicillin/streptomycin. Cells were maintained at 37 °C in 5% CO2 in a humidified incubator. All cells were sub-cultured three times/week (adherent cells by trypsinisation).
Cells were seeded at a density of 5 × 10^3 cells/well (MCF-7), in triplicate in 96-well plates. After 24 h, cells were then treated with either medium alone, vehicle [1% ethanol (v/v)] or with serial dilutions of CA-4 or β-lactam analogue. Cell viability for MCF-7 and MDA-MB-231 was analysed using the Alamar Blue assay (Invitrogen Corp, Thermo Fisher Scientific, 168 Third Avenue, Waltham, MA, USA) according to the manufacturer’s instructions. After 72 h, Alamar Blue [10% (v/v)] was added to each well and plates were incubated for 3–5 h at 37 °C in the dark. Fluorescence was read using a 96-well fluorimeter with excitation at 530 nm and emission at 590 nm. Results were expressed as percentage viability relative to vehicle control (100%). Dose response curves were plotted and IC50 values (concentration of drug resulting in 50% reduction in cell survival) were obtained using the commercial software package Prism (GraphPad Software, Inc., 2365 Northside, Suite 560, San Diego, CA, USA). Experiments were performed in triplicate on at least three separate occasions.

NCI-H23 = assay: NCI60 screen (SRB), Non-Small Cell Lung Cancer; assay type: cell-based; details: Homo sapiens
COLO 205 = assay: NCI60 screen (SRB), Colon Cancer; assay type: cell-based; details: Homo sapiens
HOP-62 = assay: NCI60 screen (SRB), Non-Small Cell Lung Cancer; assay type: cell-based; details: Homo sapiens
A549/ATCC = assay: NCI60 screen (SRB), Non-Small Cell Lung Cancer; assay type: cell-based; details: Homo sapiens
SK-MEL-28 = assay: NCI60 screen (SRB), Melanoma; assay type: cell-based; details: Homo sapiens
DU-145 = assay: NCI60 screen (SRB), Prostate cancer; assay type: cell-based; details: Homo sapiens
NCI-H226 = assay: NCI60 screen (SRB), Non-Small Cell Lung Cancer; assay type: cell-based; details: Homo sapiens
TK-10 = assay: NCI60 screen (SRB), Renal cancer; assay type: cell-based; details: Homo sapiens
CCRF-CEM = assay: NCI60 screen (SRB), Leukemia; assay type: cell-based; details: Homo sapiens
[4] = Homo sapiens, MCF7, 72 h, read-out: Viable
[5] = NCI60 Colon Cancer cell line COLO 205, read-out: GI50
[6] = NCI60 Melanoma cell line SK-MEL-28, read-out: GI50
[7] = NCI60 Prostate cancer cell line DU-145, read-out: GI50
[8] = NCI60 Renal cancer cell line TK-10, read-out: GI50
[9] = NCI60 Leukemia cell line CCRF-CEM, read-out: GI50

Row | SMILES | viability at 72 h, 10 μM ([1]; 10 μM, 25,000 cells/mL) [%] | viability at 72 h, 10 μM ([1]; 10 μM, 50,000 cells/mL) [%] | viability at 72 h ([1]; 25,000 cells/mL) [%] | viability at 72 h ([1]; 50,000 cells/mL) [%] | IC50 [2] [µM] | % Viable cells at IC50 [2] [%] | IC50 (HL-60) [µM] | IC50 (K562) [µM] | IC50 [3] [µM] | GI50 (NCI-H23) [µM] | GI50 (COLO 205; COLO 205) [µM] | GI50 (HOP-62) [µM] | GI50 (A549/ATCC) [µM] | GI50 (SK-MEL-28; SK-MEL-28) [µM] | GI50 (DU-145; DU-145) [µM] | GI50 (NCI-H226) [µM] | GI50 (COLO 205; [5]) [µM] | GI50 (SK-MEL-28; [6]) [µM] | GI50 (DU-145; [7]) [µM] | GI50 (TK-10; [8]) [µM] | further results
1 | COc1ccc(/C=C\c2cc(OC)c(OC)c(OC)c2)cc1O [CA-4, Combretastatin A-4, reference compound] | 58 | 75 | 74 | 92.1 | > 10 | 73.6 | 0.004 | 0.004 | 0.043 | – | – | – | – | – | – | – | – | – | – | – | viability at 0.05 µM (MCF-7 cells; [4]): 61.8%; apoptotic cells (annexin-V positive) (MCF-7 cells; 50 nM): 34.6%
2 | C=CC1C(=O)N(c2cc(OC)c(OC)c(OC)c2)C1c1ccc(OC)cc1 (centres unmarked) [Compound 7h, 4-(4-Methoxyphenyl)-1-(3,4,5-trimethoxyphenyl)-3-vinylazetidin-2-one] | – | – | – | – | – | – | – | – | – | 0.0245 | 0.0206 | 0.0369 | 0.0413 | 0.0599 | 0.0298 | 0.0339 | – | – | – | – | –
3 | C=CC1C(=O)N(c2cc(OC)c(OC)c(OC)c2)C1c1ccc(OC)c(O)c1 (centres unmarked) [Compound 7s, 4-[3-Hydroxy-4-methoxyphenyl]-1-(3,4,5-trimethoxyphenyl)-3-vinylazetidin-2-one] | 60 | 73.3 | 93 | > 90 | > 10 | 93.1 | 0.017 | 0.026 | – | – | – | – | – | – | – | – | 0.0321 | < 0.01 | < 0.01 | 0.0102 | cytotoxicity against murine mammary epithelial cells [2]: minimal cytotoxicity; viability at 0.01 µM (MCF-7 cells; [4]): 82.8%; viability at 0.1 µM (MCF-7 cells; [4]): 64.5%; apoptotic cells (annexin-V positive) (MCF-7 cells; 10 nM): About 13.6%; apoptotic cells (annexin-V positive) (MCF-7 cells; 100 nM): 31.9%
4 | C=CC1C(=O)N(c2cc(OC)c(OC)c(OC)c2)C1c1ccc(OC)c(N)c1 (centres unmarked) [Compound 7t, 4-(3-Amino-4-methoxyphenyl)-1-(3,4,5-trimethoxyphenyl)-3-vinylazetidin-2-one] | – | – | – | – | – | – | – | – | 0.03 ± 0.002 | 0.0387 | 0.0175 | 0.0412 | 0.0392 | 0.0181 | 0.0365 | 0.0387 | – | – | – | – | GI50 (TK-10; TK-10): 26.8 µM; GI50 (CCRF-CEM; CCRF-CEM): 0.0326 µM
5 | C=CC1C(=O)N(c2cc(OC)c(OC)c(OC)c2)C1c1ccc(OC)c(OP(=O)(O)O)c1 (centres unmarked) [Compound 17b, 2-Methoxy-5-(1-(3,4,5-trimethoxyphenyl)-4-oxo-3-vinylazetidin-2-yl)phenyl dihydrogen phosphate] | – | – | – | – | – | – | – | – | – | – | – | – | – | – | – | – | 1.91 | 0.0977 | 0.0596 | 11.4 | GI50 (CCRF-CEM; [9]): 0.0604 µM
6 | CCC1C(=O)N(c2cc(OC)c(OC)c(OC)c2)C1c1ccc(OC)c(OP(=O)(O)O)c1 (centres unmarked) [Compound 17c, 5-(3-Ethyl-1-(3,4,5-trimethoxyphenyl)-4-oxoazetidin-2-yl)-2-methoxyphenyl dihydrogen phosphate] | – | – | – | – | – | – | – | – | 0.044 ± 0.007 | – | – | – | – | – | – | – | 0.204 | 7.46 | 0.0413 | 0.0736 | GI50 (CCRF-CEM; [9]): 0.0325 µM
